Results taken from patent publication US20110009474A1, “SIRTUIN BASED METHODS AND COMPOSITIONS FOR TREATING BETA-CATENIN-RELATED CONDITIONS” (President and Fellows of Harvard College, priority 2007, published 2011).

Test system: β-catenin transcriptional activity (pTOPFLASH reporter) in 293T cells
Assay: TOPFLASH β-catenin luciferase reporter assay in transfected 293T cells
Assay type: cell-based, human
Conditions: NAM added eight hours after transfection, harvested 24 h post-transfection, normalized to Renilla luciferase, FIG. 4F

Question: Which “luciferase reporter activity (pTOPFLASH β-catenin reporter)” value does the source give for `NC(=O)c1cccnc1` [nicotinamide] here?
Answer: increased luciferase reporter activity
